Key:
human Edg 7 receptors = biological target: T1, human Edg 7 receptors (Homo sapiens, UniProt Q9UBY5); experiment: Intracellular calcium mobilization (FLIPR) in HTC cells expressing Edg-7; format: cell-based
T1 construct: expressed in transfected cells; host or cells: HTC rat hepatoma cells
T1 sequence (Q9UBY5 1-353): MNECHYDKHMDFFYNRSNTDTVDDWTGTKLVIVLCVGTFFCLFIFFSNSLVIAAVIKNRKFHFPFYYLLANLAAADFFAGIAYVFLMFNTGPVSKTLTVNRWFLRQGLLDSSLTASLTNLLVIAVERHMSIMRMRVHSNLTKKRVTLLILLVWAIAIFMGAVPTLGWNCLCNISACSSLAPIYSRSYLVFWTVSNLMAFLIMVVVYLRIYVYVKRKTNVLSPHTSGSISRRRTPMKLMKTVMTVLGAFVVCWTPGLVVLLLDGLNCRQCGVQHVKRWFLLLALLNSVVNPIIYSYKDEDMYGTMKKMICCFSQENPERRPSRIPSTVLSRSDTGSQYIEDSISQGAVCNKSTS
Description: The compounds were tested in HTC cells expressing human Edg 7 receptors. […] The compounds are tested in this recombinant system first, and subsequently tested in cell lines expressing Edg-7 (in addition to other Edg receptors).
The compounds were tested in HTC cells expressing human Edg 7 receptors. […] The compounds are tested in this recombinant system first, and subsequently tested in cell lines expressing Edg-7 (in addition to other Edg receptors). […] The calcium mobilization assays were conducted as described in Section 6.6 (Example 6).
LPA receptors such as Edg-7, couple to calcium effector pathways, and result in increases in intracellular calcium following receptor activation (An, 1998, J. Cell. Biochem Supp. 30-31:147-157). This biological response lends itself to a very efficient, high-throughput screen using a Fluorescence Imaging Plate Reader (FLIPR; Molecular Devices, Sunnyvale, Calif.). The FLIPR system is a real-time, cell-based assay system with continuous fluorescence detection using a cooled CCD camera. The FLIPR system was used to developing an Edg-7 receptor screen. Rat hepatoma cells stably expressing Edg-7 receptor were plated on 384-well plates and loaded with a calcium dye loading kit (Molecular Devices, Sunnyvale, Calif.) for 1 hour at room temperature. Cells were then placed on the FLIPR^384 (Molecular Devices, Sunnyvale, Calif.) and excited by an argon laser at 488 nm. The data for the entire 384-well plate was updated every second. An integrated robotic pipettor allowed for simultaneous compound addition into each individual well in the plate.

Edg-8 = biological target: T2, Edg-8 (Homo sapiens, UniProt Q9H228); experiment: Intracellular calcium mobilization (FLIPR) in HTC cells expressing Edg-8; format: cell-based
T2 construct: expressed in transfected cells; host or cells: HTC rat hepatoma cells
T2 sequence (Q9H228 whole entry): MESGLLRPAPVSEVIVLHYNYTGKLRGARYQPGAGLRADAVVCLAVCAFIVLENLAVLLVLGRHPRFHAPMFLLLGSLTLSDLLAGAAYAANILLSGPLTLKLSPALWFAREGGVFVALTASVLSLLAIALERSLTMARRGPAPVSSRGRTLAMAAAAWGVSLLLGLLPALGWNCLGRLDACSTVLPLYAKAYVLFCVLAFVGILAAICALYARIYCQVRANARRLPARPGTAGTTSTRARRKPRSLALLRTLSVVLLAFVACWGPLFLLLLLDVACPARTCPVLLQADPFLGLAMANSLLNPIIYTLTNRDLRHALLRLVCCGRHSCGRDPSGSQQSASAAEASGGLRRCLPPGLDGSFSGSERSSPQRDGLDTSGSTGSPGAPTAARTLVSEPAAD

Edg-4 = biological target: T3, Edg-4 (Homo sapiens, UniProt Q9HBW0); experiment: Intracellular calcium mobilization (FLIPR) in HTC cells expressing Edg-4; format: cell-based
T3 construct: expressed in transfected cells; host or cells: HTC rat hepatoma cells
T3 sequence (Q9HBW0 whole entry): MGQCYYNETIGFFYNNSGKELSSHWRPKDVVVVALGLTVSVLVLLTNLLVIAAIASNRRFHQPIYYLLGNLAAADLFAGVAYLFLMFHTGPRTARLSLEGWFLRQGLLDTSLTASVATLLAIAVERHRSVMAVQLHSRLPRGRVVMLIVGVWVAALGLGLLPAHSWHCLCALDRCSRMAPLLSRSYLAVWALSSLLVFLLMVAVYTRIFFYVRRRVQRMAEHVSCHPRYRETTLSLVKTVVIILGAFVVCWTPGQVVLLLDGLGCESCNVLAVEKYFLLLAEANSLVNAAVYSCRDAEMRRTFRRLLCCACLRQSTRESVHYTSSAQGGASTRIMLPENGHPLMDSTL

untransfected HTC cells = experiment: Intracellular calcium mobilization (FLIPR) in untransfected HTC cells; format: cell-based, rat; settings: concentrations as high as 25 μM
Edg-1 = biological target: T4, Edg-1 (Homo sapiens, UniProt P21453); experiment: Intracellular calcium mobilization (FLIPR) in HTC cells expressing Edg-1; format: cell-based
T4 construct: expressed in transfected cells; host or cells: HTC rat hepatoma cells
T4 sequence (P21453 whole entry): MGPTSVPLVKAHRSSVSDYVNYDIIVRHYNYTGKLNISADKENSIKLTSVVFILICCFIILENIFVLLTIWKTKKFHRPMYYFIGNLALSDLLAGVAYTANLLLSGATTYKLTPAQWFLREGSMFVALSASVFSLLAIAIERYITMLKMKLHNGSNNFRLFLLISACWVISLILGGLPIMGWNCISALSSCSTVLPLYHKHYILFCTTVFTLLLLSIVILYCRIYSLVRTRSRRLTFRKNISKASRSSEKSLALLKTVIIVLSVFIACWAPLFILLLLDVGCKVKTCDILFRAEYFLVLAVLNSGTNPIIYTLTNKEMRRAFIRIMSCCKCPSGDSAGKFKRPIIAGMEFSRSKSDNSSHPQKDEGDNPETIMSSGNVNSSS

Edg-5 = biological target: T5, Edg-5 (Homo sapiens, UniProt O95136); experiment: Intracellular calcium mobilization (FLIPR) in HTC cells expressing Edg-5; format: cell-based
T5 construct: expressed in transfected cells; host or cells: HTC rat hepatoma cells
T5 sequence (O95136 whole entry): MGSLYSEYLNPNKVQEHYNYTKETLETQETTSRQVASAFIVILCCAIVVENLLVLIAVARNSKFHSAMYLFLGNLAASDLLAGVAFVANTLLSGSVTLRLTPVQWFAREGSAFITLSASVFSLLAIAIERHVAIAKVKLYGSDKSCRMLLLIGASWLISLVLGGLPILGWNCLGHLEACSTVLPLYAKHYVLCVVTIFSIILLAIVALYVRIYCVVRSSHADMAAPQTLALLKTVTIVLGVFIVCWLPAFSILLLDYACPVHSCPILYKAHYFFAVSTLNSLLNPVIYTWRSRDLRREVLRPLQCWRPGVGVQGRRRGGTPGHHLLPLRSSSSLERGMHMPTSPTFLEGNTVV

Edg-6 = biological target: T6, Edg-6 (Homo sapiens, UniProt O95977); experiment: Intracellular calcium mobilization (FLIPR) in HTC cells expressing Edg-6; format: cell-based
T6 construct: expressed in transfected cells; host or cells: HTC rat hepatoma cells
T6 sequence (O95977 1-384): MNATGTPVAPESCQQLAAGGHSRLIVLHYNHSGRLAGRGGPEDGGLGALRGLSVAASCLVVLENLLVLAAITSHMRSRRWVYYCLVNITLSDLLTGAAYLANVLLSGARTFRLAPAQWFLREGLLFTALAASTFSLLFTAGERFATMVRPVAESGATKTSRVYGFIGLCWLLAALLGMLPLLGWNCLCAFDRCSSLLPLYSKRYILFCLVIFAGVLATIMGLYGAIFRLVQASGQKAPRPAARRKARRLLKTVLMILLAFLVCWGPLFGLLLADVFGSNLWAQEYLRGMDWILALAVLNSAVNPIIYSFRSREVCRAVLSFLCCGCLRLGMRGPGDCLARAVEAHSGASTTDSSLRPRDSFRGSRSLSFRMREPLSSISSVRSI

Edg-3 = biological target: T7, Edg-3 (Homo sapiens, UniProt Q99500); experiment: Intracellular calcium mobilization (FLIPR) in HTC cells expressing Edg-3; format: cell-based
T7 construct: expressed in transfected cells; host or cells: HTC rat hepatoma cells
T7 sequence (Q99500 whole entry): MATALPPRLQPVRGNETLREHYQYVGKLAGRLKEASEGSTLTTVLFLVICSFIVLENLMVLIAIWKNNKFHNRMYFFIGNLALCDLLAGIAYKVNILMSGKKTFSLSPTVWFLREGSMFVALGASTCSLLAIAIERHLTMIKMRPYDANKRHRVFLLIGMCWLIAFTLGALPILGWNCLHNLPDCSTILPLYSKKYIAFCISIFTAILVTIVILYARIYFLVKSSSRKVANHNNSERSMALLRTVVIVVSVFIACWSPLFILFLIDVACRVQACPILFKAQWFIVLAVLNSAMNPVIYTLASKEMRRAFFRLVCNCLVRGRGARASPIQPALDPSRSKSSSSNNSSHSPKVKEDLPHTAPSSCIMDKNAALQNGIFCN

Edg-2 = biological target: T8, Edg-2 (Homo sapiens, UniProt Q92633); experiment: Intracellular calcium mobilization (FLIPR) in HTC cells expressing Edg-2; format: cell-based
T8 construct: expressed in transfected cells; host or cells: HTC rat hepatoma cells
T8 sequence (Q92633 whole entry): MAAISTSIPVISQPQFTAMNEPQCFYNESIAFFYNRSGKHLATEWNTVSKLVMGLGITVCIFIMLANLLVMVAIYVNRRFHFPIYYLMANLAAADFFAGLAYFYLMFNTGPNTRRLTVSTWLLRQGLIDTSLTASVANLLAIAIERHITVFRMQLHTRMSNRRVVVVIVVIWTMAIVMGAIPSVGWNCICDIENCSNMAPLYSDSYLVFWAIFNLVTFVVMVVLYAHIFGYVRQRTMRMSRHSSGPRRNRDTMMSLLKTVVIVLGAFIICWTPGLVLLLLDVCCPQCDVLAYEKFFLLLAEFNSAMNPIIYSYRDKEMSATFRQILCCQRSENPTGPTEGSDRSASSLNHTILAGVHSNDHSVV

[1] = HTC cells expressing human Edg 7 receptors
[2] = concentrations as high as 25 μM
[3] = concentrations as high as 20 μM

SMILES	melting point	activation of the Edg-7 receptor (human Edg 7 receptors; [1])	stimulation of calcium increases (Edg-8; [2])	stimulation of calcium increases (Edg-4; [2])	stimulation of calcium increases (untransfected HTC cells)	stimulation of calcium increases (Edg-1; [2])	stimulation of calcium increases (Edg-5; [2])	stimulation of calcium increases (Edg-6; [2])	stimulation of calcium increases (Edg-3; [2])	stimulation of calcium increases (Edg-2; [2])	inhibition of Edg-7 stimulated LPA responses (human Edg 7 receptors; [1])	selectivity for Edg 7 (human Edg 7 receptors; tested on HTC cells expressing Edg-7)	inhibition of S1P-stimulated calcium increases (Edg-8; [3])	inhibition of LPA-stimulated calcium increases (Edg-4; [3])	inhibition of S1P-stimulated calcium increases (Edg-1; [3])	inhibition of S1P-stimulated calcium increases (Edg-5; [3])	inhibition of S1P-stimulated calcium increases (Edg-6; [3])	inhibition of S1P-stimulated calcium increases (Edg-3; [3])	inhibition of LPA-stimulated calcium increases (Edg-2; [3])
CCCCCC(CCCCC)=N/N=C1\NC(=O)C(CC(=O)O)S1 (centres unmarked) [Compound 127, 4-Oxo-2-[(1-pentylhexylidene)hydrazono]thiazolidin-5-ylacetic acid]	134 to 135 °C	specifically activate	did not stimulate calcium increases	did not stimulate calcium increases	did not stimulate calcium increases	did not stimulate calcium increases	did not stimulate calcium increases	did not stimulate calcium increases	did not stimulate calcium increases	did not stimulate calcium increases									
O=C(O)COc1ccc(Br)cc1/C=C1\S/C(=N\c2ccc(Cl)cc2)NC1=O [Compound 107, 4-Bromo-2-[2-(4-chlorophenylamino)-4-oxothiazolidin-5-ylidenemethyl]phenoxyacetic acid]											demonstrate inhibition								
Cc1ccc(S(=O)(=O)N=C2NC(=O)/C(=C3/C(=O)Nc4ccccc43)S2)cc1 [Compound 105, 4-Methyl-N-[4-oxo-5-(2-oxo1,2-dihydroindol-3-ylidene)thiazolidin-2-ylidene]-benzenesulfonamide]											demonstrate inhibition	exhibited selectivity	did not inhibit	did not inhibit	did not inhibit	did not inhibit	did not inhibit	did not inhibit	did not inhibit

— US20040167192A1, “Methods of treating conditions associated with an Edg-7 receptor” (priority 2003, published 2004)
